Source: the supplement of paper PMC4862054
Where “and” joins values, the source holds several entries; their conditions need not be identical. Equal entries are not always repeated.

Columns and labels:
Details in all cases: incubation time: 72 h
MDA-MB-436 [1] = experiment: normalised viability (% of control), CellTiter-Blue; higher = more viable cells (about 100 = DMSO control)
In short: (§1)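 384-well plates were pre-loaded with compound in 5 µl medium before 20 µl of breast cancer cell suspension was seeded. Following 72 h incubation, 2.5 µl CellTiter-Blue reagent was added for 2 h at 37 °C. Fluorescence was read at 560/590 nm and plates were normalised to vehicle (100) and a positive kill control (0), checked by Z'-factor. Normalised viability is reported at a single listed concentration of the series.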

CAL-85-1 [2] = experiment: as above
In short: as §1

Hs578T [3] = experiment: as above
In short: as §1

DU-4475 [4] = experiment: as above
In short: as §1

CAL-148 [5] = experiment: as above
In short: as §1

HDQ-P1 [6] = experiment: as above
In short: as §1

BT-474 = experiment: drug sensitivity score (DSS), CellTiter-Glo (DSS (AUC-based score)); higher = stronger drug effect (viability inhibition or cytotoxicity); extreme values may be limits of the assay
In short: (§2)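 A drug sensitivity score was derived from the area under each fitted dose-response curve. Breast cancer cells (20 µl suspension) were seeded onto compound in 384-well plates, using 5 concentrations 10-fold apart over a compound-specific 10,000-fold range, and incubated 72 h. Readouts were CellTox Green fluorescence and then CellTiter-Glo luminescence, with every plate normalised to 0.1 % DMSO and a positive kill control.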

BT-549 = experiment: as above
In short: as §2

MDA-MB-436 [7] = experiment: as above
In short: as §2

MFM-223 = experiment: as above
In short: as §2

HCC1599 = experiment: as above
In short: as §2

MDA-MB-468 = experiment: as above
In short: as §2

CAL-85-1 [8] = experiment: as above
In short: as §2

Hs578T [9] = experiment: as above
In short: as §2

HCC1143 = experiment: as above
In short: as §2

DU-4475 [10] = experiment: as above
In short: as §2

MDA-MB-453 = experiment: as above
In short: as §2

CAL-120 = experiment: as above
In short: as §2

CAL-148 [11] = experiment: as above
In short: as §2

SK-BR-3 = experiment: as above
In short: as §2

MDA-MB-231 = experiment: as above
In short: as §2

MCF-10A = experiment: as above
In short: as §2

HDQ-P1 [12] = experiment: as above
In short: as §2

CAL-51 = experiment: as above
In short: as §2

HCC1937 = experiment: as above
In short: as §2

CO[C@H](C(=O)[C@@H](O)[C@@H](C)O)[C@@H]1Cc2cc3cc(O[C@H]4C[C@@H](O[C@@H]5C[C@@H](O)[C@H](O)[C@@H](C)O5)[C@H](O)[C@@H](C)O4)c(C)c(O)c3c(O)c2C(=O)[C@H]1O[C@H]1C[C@@H](O[C@@H]2C[C@@H](O)[C@@H](O[C@@H]3C[C@](C)(O)[C@H](O)[C@@H](C)O3)[C@@H](C)O2)[C@H](O)[C@@H](C)O1 [Plicamycin]
Details	normalised viability
CAL-85-1 [2], 3 nM	87.3% and 88.3%
CAL-85-1 [2], 30 nM	89.2% and 83.9%
CAL-85-1 [2], 100 nM	51.5% and 39.5%
CAL-148 [5], 3 nM	87.7%
CAL-148 [5], 30 nM	95.3% and 99.5%
CAL-148 [5], 100 nM	26% and 38.8%
DU-4475 [4], 3 nM	85.1% and 89.9%
DU-4475 [4], 30 nM	88.7% and 83.8%
DU-4475 [4], 100 nM	1.46% and 0.7%
HDQ-P1 [6], 30 nM	104% and 80.5%
HDQ-P1 [6], 100 nM	68.5% and 44.6%
Hs578T [3], 10 nM	100% and 82.1%
Hs578T [3], 1000 nM	3.62% and 2.96%
Hs578T [3], 10000 nM	2.27% and 1.73%
MDA-MB-436 [1], 10 nM	95.2% and 75.5%
MDA-MB-436 [1], 1000 nM	25.8% and 19.9%
MDA-MB-436 [1], 10000 nM	21.7% and 13.9%

Details	drug sensitivity score
BT-474	6.47
BT-549	7.16
CAL-51	18.2
CAL-85-1 [8]	4.1
CAL-120	2.12
CAL-148 [11]	4.43
DU-4475 [10]	5.55
HCC1143	4.54
HCC1599	3.99
HCC1937	4.37
HDQ-P1 [12]	2.83
Hs578T [9]	4.2
MCF-10A	4.28
MDA-MB-231	5.67
MDA-MB-436 [7]	2.49
MDA-MB-453	3.11
MDA-MB-468	6.69
MFM-223	1.97
SK-BR-3	3.86

C[C@]12C=CC(=O)C=C1CC[C@@H]1[C@@H]2C(=O)C[C@@]2(C)[C@H]1CC[C@]2(O)C(=O)CO [Prednisone]
normalised viability [%]
Details	CAL-85-1 [2]	CAL-148 [5]	DU-4475 [4]	HDQ-P1 [6]	Hs578T [3]	MDA-MB-436 [1]
3 nM	95.8	94.8	90.2	98.3	–	–
10 nM	–	–	–	–	121	91.3
30 nM	102	97.4	94.9	110	–	–
100 nM	90.9	104	88.4	114	–	–
1000 nM	–	–	–	–	108	70.5
10000 nM	–	–	–	–	105	109

Details	drug sensitivity score
BT-474	0
BT-549	0
CAL-51	0
CAL-85-1 [8]	0
CAL-120	0.925
CAL-148 [11]	0
DU-4475 [10]	0
HCC1143	0
HCC1599	0
HCC1937	0
HDQ-P1 [12]	0
Hs578T [9]	0
MCF-10A	0
MDA-MB-231	0
MDA-MB-436 [7]	0
MDA-MB-453	0
MDA-MB-468	0
MFM-223	0
SK-BR-3	0

CO[C@H]1C[C@@H]2CC[C@@H](C)[C@@](O)(O2)C(=O)C(=O)N2CCCC[C@H]2C(=O)O[C@H]([C@H](C)C[C@@H]2CC[C@@H](O)[C@H](OC)C2)CC(=O)[C@H](C)/C=C(\C)[C@@H](O)[C@@H](OC)C(=O)[C@H](C)C[C@H](C)/C=C/C=C/C=C/1C [Sirolimus]
normalised viability [%]
Details	CAL-85-1 [2]	CAL-148 [5]	DU-4475 [4]	HDQ-P1 [6]	Hs578T [3]	MDA-MB-436 [1]
0.3 nM	86.1	96.1	99.1	88.9	–	–
1 nM	–	–	–	–	65.5	93.3
3 nM	58.2	53.9	61.4	66.3	–	–
10 nM	66	53.3	65.8	71.3	–	–
100 nM	–	–	–	–	53.1	84.5
1000 nM	–	–	–	–	51.8	87.2

Details	drug sensitivity score
BT-474	2.79
BT-549	9.21
CAL-51	7.01
CAL-85-1 [8]	8.85
CAL-120	6
CAL-148 [11]	6.47
DU-4475 [10]	1.94
HCC1143	5.31
HCC1599	0
HCC1937	3.34
HDQ-P1 [12]	2.98
Hs578T [9]	7.08
MCF-10A	0
MDA-MB-231	0
MDA-MB-436 [7]	3.52
MDA-MB-453	6.86
MDA-MB-468	12.2
MFM-223	5.41
SK-BR-3	5.69

CN1CCN(c2nc(C3=C(c4c[nH]c5ccccc45)C(=O)NC3=O)c3ccccc3n2)CC1 [Sotrastaurin]
normalised viability [%]
Details	CAL-85-1 [2]	CAL-148 [5]	DU-4475 [4]	HDQ-P1 [6]	Hs578T [3]	MDA-MB-436 [1]
3 nM	106	115	98.6	88.9	–	–
10 nM	–	–	–	–	98.7	112
30 nM	111	113	94	98.8	–	–
100 nM	130	119	115	94.1	–	–
1000 nM	–	–	–	–	98.4	59.1
10000 nM	–	–	–	–	87.2	107

Details	drug sensitivity score
BT-474	0
BT-549	0
CAL-51	0
CAL-85-1 [8]	0
CAL-120	0
CAL-148 [11]	0
DU-4475 [10]	1.72
HCC1143	0
HCC1599	0
HCC1937	0
HDQ-P1 [12]	0.186
Hs578T [9]	0
MCF-10A	0
MDA-MB-231	0
MDA-MB-436 [7]	0
MDA-MB-453	0
MDA-MB-468	0
MFM-223	0
SK-BR-3	1.56

CC/C(=C(\c1ccccc1)c1ccc(OCCN(C)C)cc1)c1ccccc1 [Tamoxifen]
normalised viability [%]
Details	CAL-85-1 [2]	CAL-148 [5]	DU-4475 [4]	HDQ-P1 [6]	Hs578T [3]	MDA-MB-436 [1]
3 nM	100	111	99.9	109	–	–
10 nM	–	–	–	–	122	101
30 nM	92	105	95.7	100	–	–
100 nM	116	127	110	110	–	–
1000 nM	–	–	–	–	123	94.7
10000 nM	–	–	–	–	104	40.1

Details	drug sensitivity score
BT-474	0
BT-549	0
CAL-51	4.03
CAL-85-1 [8]	0
CAL-120	0.0022
CAL-148 [11]	0
DU-4475 [10]	0
HCC1143	0
HCC1599	0
HCC1937	1.17
HDQ-P1 [12]	0
Hs578T [9]	0
MCF-10A	0
MDA-MB-231	0
MDA-MB-436 [7]	0
MDA-MB-453	5.28
MDA-MB-468	0
MFM-223	1.68
SK-BR-3	1.07
